In patent publication US12064444B2, “Application of tannic acid in preparation of medicament against respiratory viruses” (priority 2020, dated 2024):

System: SARS-CoV-2 virus

SMILES	SI (Selection Index = TC50/IC50)
CCC(CC)COC(=O)[C@H](C)N[P@](=O)(OC[C@H]1O[C@@](C#N)(c2ccc3c(N)ncnn23)[C@H](O)[C@@H]1O)Oc1ccccc1 [Remdesivir]	162.21
O=C(OC[C@H]1O[C@@H](OC(=O)c2cc(O)c(O)c(OC(=O)c3cc(O)c(O)c(O)c3)c2)[C@H](OC(=O)c2cc(O)c(O)c(OC(=O)c3cc(O)c(O)c(O)c3)c2)[C@@H](OC(=O)c2cc(O)c(O)c(OC(=O)c3cc(O)c(O)c(O)c3)c2)[C@@H]1OC(=O)c1cc(O)c(O)c(OC(=O)c2cc(O)c(O)c(O)c2)c1)c1cc(O)c(O)c(OC(=O)c2cc(O)c(O)c(O)c2)c1 [Tannic acid, tannic acid]	7343.75
